From patent US11998516B2, “Methods and compositions for treating depression using cyclobenzaprine” (TONIX PHARMA HOLDINGS LIMITED, priority 2011, dated 2024)

Experiments:
[1] = system: patients with fibromyalgia
Procedure: Hospital Anxiety and Depression Scale (HAD). The Hospital Anxiety and Depression Scale (HAD) is a widely used patient self-rated scale with 14 questions (7 “anxiety” and 7 “depression” questions) that ranges from 0-42.
The HAD Depression Subscale score was also analyzed.

fibromyalgia patients = conditions: 10 to 40 mg over a 12-week period; cited from earlier work
[2] = 1-4 mg at bedtime, week 8, p=0.012
[3] = 1-4 mg at bedtime, week 8, p=0.017

Question: Which results are given for CN(C)CCC=C1c2ccccc2C=Cc2ccccc21 [cyclobenzaprine, 3-(5H-dibenzo[a,d]cyclohepten-5-ylidene)-N,N-dimethyl-1-propanamine]?
Answer: HAD depression subscale at week 8 ([1]; 1-4 mg at bedtime, week 8): 4.9; decrease (improvement) of HAD score, baseline to week 8 [1, 2]: 3.3; percent decrease of HAD score, baseline to week 8 [1, 2]: 24.1%; decrease (improvement) of HAD depression subscale, baseline to week 8 [1, 3]: 1.4; percent decrease of HAD depression subscale, baseline to week 8 [1, 3]: 22.2%; HAD score at week 8 ([1]; 1-4 mg at bedtime, week 8, scale range 0-42): 10.4; HAD depression subscale at baseline ([1]; fibromyalgia patients, before treatment): 6.3; HAD score at baseline ([1]; fibromyalgia patients, before treatment, scale range 0-42): 13.7; comparison of change from baseline in HAD scale versus placebo ([1]; week 8, VLD CBP vs placebo groups): did not reveal a significant effect; comparison of change from baseline in HAD Depression subscore versus placebo ([1]; week 8, VLD CBP vs placebo groups, p=0.023): significant improvement; muscle tightness (fibromyalgia patients): reduction; pain score (fibromyalgia patients): significantly improved; quality of sleep (fibromyalgia patients): significantly improved; total number of tender points (fibromyalgia patients): reduction
